In PubChem BioAssay (NCI):
Where “and” joins values, the source holds several entries; their conditions need not be identical. Identical values can stand only once.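 Method: 48-hour compound exposure of cells in 96-well plates, five concentrations, linear interpolation of endpoints. GI50 = concentration required for 50% inhibition of growth. At the TGI there is no net growth.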

Tests used:
Experiment in all cases: NCI anticancer screen, dose series, 48 h
SK-MEL-28 melanoma = system: SK-MEL-28 melanoma
A498 renal = system: A498 renal
K-562 leukemia = system: K-562 leukemia
HCT-116 colon = system: HCT-116 colon
NCI-H460 lung = system: NCI-H460 lung
NCI-H522 lung = system: NCI-H522 lung
SF-295 CNS = system: SF-295 CNS
HL-60(TB) leukemia = system: HL-60(TB) leukemia
NCI/ADR-RES ovarian = system: NCI/ADR-RES ovarian
TK-10 renal = system: TK-10 renal

SMILES | TGI (SK-MEL-28 melanoma) | TGI (A498 renal) | TGI (K-562 leukemia) | TGI (HCT-116 colon) | TGI (NCI-H460 lung) | TGI (NCI-H522 lung) | TGI (SF-295 CNS) | TGI (HL-60(TB) leukemia) | TGI (NCI/ADR-RES ovarian) | TGI (TK-10 renal) | GI50 (SK-MEL-28 melanoma) | GI50 (A498 renal) | GI50 (K-562 leukemia) | GI50 (HCT-116 colon) | GI50 (NCI-H460 lung) | GI50 (NCI-H522 lung) | GI50 (SF-295 CNS) | GI50 (HL-60(TB) leukemia) | GI50 (NCI/ADR-RES ovarian) | GI50 (TK-10 renal)
C=C(CC)C(=O)c1ccc(OCC(=O)O)c(Cl)c1Cl | 33.6 µM | > 100 µM | > 100 µM | > 55.1 µM | > 69.9 µM | 29.6 µM | > 100 µM | > 85 µM | > 61.9 µM | 30.2 µM | – | – | – | – | – | – | – | – | – | –
COC(=O)C1C(=O)C(C(=O)OC)C2CCC1N2C (configuration not stated) | > 100 µM | > 100 µM | > 100 µM | > 83.2 µM | > 100 µM | > 100 µM | > 100 µM | > 65.8 µM | > 100 µM | > 100 µM | – | – | – | – | – | – | – | – | – | –
O=C(CCl)N1CCN(c2ccccc2)CC1 | 35.7 µM | 47.2 µM | > 100 µM | 35.5 µM | 34.9 µM | – | 36.2 µM | 41.2 µM | > 100 µM | 34.8 µM | – | – | – | – | – | – | – | – | – | –
CCc1nc(N)nc(N)c1-c1ccc(N2CCNCC2)c([N+](=O)[O-])c1 | > 100 µM | > 100 µM | > 90.2 µM | > 100 µM | > 100 µM | > 100 µM | > 100 µM | > 85.2 µM | > 100 µM | > 100 µM | – | – | – | – | – | – | – | – | – | –
Cc1cc(NS(=O)(=O)c2ccc(-c3cnc(C4CC4)o3)cc2)ccc1Cl | 20 µM | 0.676 µM | > 100 µM | 13.4 µM | 11.1 µM | 3.38 µM | 2.57 µM | 1.23 µM | 12.5 µM | 16 µM | 2.87 µM | 0.0828 µM | 0.0567 µM | 0.264 µM | 0.297 µM | 0.0761 µM | 0.0995 µM | 0.232 µM | 0.181 µM | 1.11 µM
CCN(CC)CCOc1ccc(/C(=C(\C)Cc2ccc(OC)cc2)c2ccc(O)cc2)cc1 | 3.33 µM | 4.81 µM | 3.99 µM | – | 3.68 µM | 3.82 µM | 3.3 µM | 3.14 µM | 7.74 µM | 3.68 µM | 1.79 µM | 1.38 µM | 1.37 µM | – | 1.86 µM | 1.89 µM | 1.69 µM | 1.41 µM | 2.43 µM | 1.82 µM
COc1cccc(N2C(=N)/C(=C3\Nc4ccccc4S3)CC2=O)c1 | > 100 µM | 80 µM | > 100 µM | > 100 µM | 26.3 µM | > 100 µM | 8.1 µM | > 100 µM | > 100 µM | > 100 µM | > 100 µM | 2.02 µM | 3.92 µM | 6.22 µM | 2.89 µM | 8.22 µM | 1.64 µM | 4.85 µM | 15.8 µM | 17.8 µM
Nc1ncc(-c2ccc3ncnc(N4CCc5cc(F)c(Cl)cc54)c3c2)cc1C=O | > 100 µM | 0.758 µM | > 100 µM | > 100 µM | > 100 µM | > 100 µM | > 27.9 µM | 3.86 µM | > 100 µM | 3.65 µM | 1.61 µM | 0.167 µM | 2.82 µM | 2.29 µM | 0.814 µM | 2.17 µM | 1.32 µM | 0.403 µM | 2.82 µM | 0.248 µM
CCN1CCCCCCCCCC(=N/O)/C(=N\O)C1 | > 100 µM | > 100 µM | > 100 µM | > 100 µM | > 100 µM | > 100 µM | > 100 µM | > 100 µM | > 100 µM | > 100 µM | – | – | – | – | – | – | – | – | – | –
O=C1NC(=NCCc2ccccc2F)S/C1=C\c1ccc2ncccc2c1 | > 25 µM | 18.2 µM | > 25 µM | > 25 µM | > 25 µM | 16.9 µM | > 25 µM | 22.1 µM | > 25 µM | > 25 µM | 11.7 µM | 4.83 µM | 2.78 µM | 1.27 µM | 6.57 µM | 4.74 µM | 7.06 µM | 9.14 µM | 9.2 µM | 5.13 µM
COc1ccc(/C=C/C(=O)OC2CC34CCNC35CC(OC5(OC)C2OC)c2ccc(OC)c(O)c24)cc1O (configuration not stated) | > 100 µM | > 100 µM | > 100 µM | > 100 µM | > 100 µM | > 100 µM | > 100 µM | 62.8 µM | > 100 µM | > 100 µM | – | – | 33.7 µM and > 100 µM | 47.2 µM and > 100 µM | – | 49.6 µM and > 100 µM | – | – | – | –
CC[C@]1(O)CC2CN(CCc3c([nH]c4ccccc34)C(C(=O)OC)(c3cc4c(cc3OC)N(C=O)[C@H]3[C@@](O)(C(=O)OC)[C@H](OC(C)=O)[C@]5(CC)[C@@H]6C[C@@H]6CN6CC[C@]43[C@@H]65)C2)C1 (some centres not stated) | – | 0.00882 µM | 4.84 µM | 0.00352 µM | > 11.2 µM | < 0.00325 µM | 0.325 µM | < 0.00325 µM | 1.23 µM | 17.5 µM | – | < 0.00325 µM | < 0.00325 µM | < 0.00325 µM | < 0.00325 µM | < 0.00325 µM | < 0.00325 µM | < 0.00325 µM | 0.179 µM | < 0.00325 µM
Oc1ccc(/C=N/NC(=S)Nc2ccccc2)nc1 | > 100 µM | > 100 µM | > 100 µM | > 100 µM | > 100 µM | 39.8 µM | – | 6.77 µM | > 100 µM | > 100 µM | 3.14 µM | 3 µM | 3.72 µM | 1.42 µM | 2.77 µM | 1.94 µM | – | 1.55 µM | 1.43 µM | 4.18 µM
Cc1cc2c3c(nc4ccccc42)C(=O)c2cccnc2-c3n1 | 2.68 µM | 4.12 µM | 0.345 µM | 0.11 µM | 1.06 µM | 0.315 µM | 1.91 µM | 1.36 µM | – | – | 0.976 µM | 0.966 µM | 0.109 µM | < 0.0416 µM | 0.162 µM | 0.04 µM | 0.541 µM | 0.135 µM | 0.489 µM | –
O=C(CCl)N1CCN(c2ccccn2)CC1 | 41.6 µM | 31.4 µM | > 100 µM | > 100 µM | 41.2 µM | – | > 10 µM | 49.6 µM | 57.7 µM | 35.8 µM | – | – | – | – | – | – | – | – | – | –
